Experiments:
mouse pRBCs [1] = experiment: Hemolysis (cell-free hemoglobin) in stored mouse pRBCs; type: cell-based; details: mouse pRBCs stored at 4° C. for 14 days, inhibitor added prior to storage
Experimental: (§1) Human pRBCs were obtained from Hoxworth Blood Bank (Cincinnati, OH) and stored at 4° C. for 42 days according to standard blood banking practice. Murine pRBCs were obtained as previously described. Briefly, donor mice were anesthetized with intraperitoneal pentobarbital (0.1 mg/g body weight) and blood was collected via cardiac puncture into CP2D anticoagulant-coated syringes. CP2D was then added to the whole blood in a 1:7 ratio and gently mixed. Whole blood was centrifuged at 1,000 g for 10 minutes at 4° C. and platelet-rich plasma was discarded. Storage solution (AS-3) was added to erythrocytes in a 2:9 ratio using the original whole blood volume. Units were stored at 4° C. for 14 days.
(§2) Erythrocytes were pelleted from pRBC samples at 2,000 g for 10 minutes at 4° C. The supernatant from this spin was then centrifuged at 10,000 g for 10 minutes at 4° C. to pellet any remaining cells or platelets. The MP-rich supernatant from this second spin was used to characterize MP production and hemolysis. […]
(§3) Hemoglobin in the MP-rich supernatant was quantified using a Coulter AcT diff Analyzer (Beckman Coulter Corp., Brea, CA). Cell size (forward scatter), complexity (side scatter), phosphatidylserine exposure (annexin V positivity), and band 3 protein integrity (eosin-5-maleimide^68) were analyzed using an Attune flow cytometer (Life Technologies, Carlsbad, CA). […]

mouse pRBCs [2] = experiment: Microparticle formation in stored mouse pRBCs (Nanoparticle Tracking Analysis); type: cell-based; details: mouse pRBCs stored at 4° C. for 14 days, inhibitor added prior to storage
Experimental: as §1
(§4) Erythrocytes were pelleted from pRBC samples at 2,000 g for 10 minutes at 4° C. The supernatant from this spin was then centrifuged at 10,000 g for 10 minutes at 4° C. to pellet any remaining cells or platelets. The MP-rich supernatant from this second spin was used to characterize MP production and hemolysis. MPs were pelleted using a 20,000 g spin for 30 minutes at 4° C.

human pRBCs [3] = experiment: Hemolysis (cell-free hemoglobin) in stored human pRBCs; type: cell-based; details: human pRBCs stored at 4° C., increasing AT concentration
Experimental: as §1, §2, §3

C57BL/6 mice = experiment: Lung inflammation after transfusion of aged pRBCs, histology (edema, Gr1 inflammatory cells, ZO1 tight junctions); type: in vivo, mouse; details: 200 μl IV aged pRBCs treated with 125 μM AT, lungs taken 6 hours after transfusion
Experimental: Male C57BL/6 mice aged 8-10 weeks were purchased from Jackson Laboratories, fed standard laboratory diet and water ad libitum, and acclimated for 1 week in climate-controlled conditions with 12 hours light-dark cycles prior to use. Asm-deficient mice (Asm^−/−) on a C57BL/6 background were used and compared to syngenic C57Bl/6 wild type mice as controls. All experiments were approved by the Institutional Animal Care and Use Committee at the University of Cincinnati. To study the effect of AT treatment on lung inflammation following blood transfusion, mice received 200 μl IV injections of pRBCs or MPs. Lungs were taken 6 hours after transfusion for either histologic or Evans blue evaluation. Histologic lung sections were examined for evidence of lung edema with hematoxylin and inflammatory cells with anti-Gr1 antibodies (AbD Serotec, Raleigh, NC). Tight junction integrity was assessed by staining lung slides with Cy3-conjugated anti-ZO1 (Jackson ImmunoResearch, West Grove, PA). Endothelial cell permeability was assessed using the Evans blue method (source). In brief, mice were weighed and injected with 30 mg/kg Evans blue. After 10 minute of circulation time, mice were sacrificed and the pulmonary vasculature was flushed with 10 ml PBS. Lungs were dried at 55° C. for 24 hours and then incubated in 500 μl formamide for 48 hours at 55° C. Evans blue extraction calculated by measuring the optical density at 620 nm and comparing to a standard curve, and values were normalized to dry lung weight.

mouse erythrocytes = experiment: Erythrocyte characterization by flow cytometry (size, complexity, phosphatidylserine exposure, band 3 integrity); type: cell-based
Experimental: as §1
Hemoglobin in the MP-rich supernatant was quantified using a Coulter AcT diff Analyzer (Beckman Coulter Corp., Brea, CA). Cell size (forward scatter), complexity (side scatter), phosphatidylserine exposure (annexin V positivity), and band 3 protein integrity (eosin-5-maleimide^68) were analyzed using an Attune flow cytometer (Life Technologies, Carlsbad, CA). Antibodies for ter119, CD235a, CD41, CD45, and Annexin V were acquired from BD Biosciences (San Diego, CA), and eosin-5-maleimide was obtained from Life Technologies (Carlsbad, CA).

human pRBCs [4] = experiment: Microparticle formation in stored human pRBCs (Nanoparticle Tracking Analysis); type: cell-based; details: human pRBCs stored at 4° C., increasing doses added prior to storage
Experimental: as §1, §4

SMILES	hemolysis (cell-free hemoglobin) (mouse pRBCs [1])	MP formation (mouse pRBCs [2])	hemolysis (cell-free hemoglobin) (human pRBCs [3])	disruption of tight junctions in the lung (ZO1) (C57BL/6 mice)	inflammatory cell recruitment to the lungs (C57BL/6 mice)	lung edema (C57BL/6 mice)	age-related phosphatidylserine expression (annexin V positivity) (mouse erythrocytes; aged mouse erythrocytes)	age-related decrease in cell complexity (side scatter) (mouse erythrocytes; stored mouse erythrocytes)	reduction of band 3 degradation (eosin-5-maleimide) (mouse erythrocytes; stored mouse erythrocytes, 125 μM AT)	age-related decrease in cell size (forward scatter) (mouse erythrocytes; stored mouse pRBCs)	MP formation (human pRBCs [4])
CNCCC(Oc1ccc(C(F)(F)F)cc1)c1ccccc1 (stereo not drawn) [Fluoxetine]	reduced hemolysis	–	–	–	–	–	–	–	–	–	–
CN(C)CCC=C1c2ccccc2CCc2ccccc21 [AT, Amitriptyline]	dose-dependent reduction in hemolysis	dose-dependent reduction of MP formation	dose-dependent reduction in hemolysis	mitigated	greatly reduced	greatly reduced	reduced this age-related phosphatidylserine expression in a dose dependent manner	mitigated	~50%	mitigated	dose-dependent reduction of MP formation
